Legend:
[1] = Body weight and tolerability in arthritic and non-arthritic rats of the AA study; assay type: in vivo, rat
Source text: Adult male Lewis rats (200-250 g) were purchased from Charles River Laboratories, Raleigh, N.C. and housed two per cage. The animals were allowed to acclimate to the Sun Health Research Institute's vivarium for 7 days prior to the start of the experiment. The animals were maintained on a 12-h off/on light schedule. For AA rats rodent Diet (Purina Lab Diet 5001) was placed in the bottom of the cage and water was supplied using long-stemmed sipper tubes for easy access to food and water. […] Animals were weighed and observed daily to ensure adequate weight gain and good general health. Body weights and footpad measures were started 1 week prior to the first adjuvant injection to acclimate the animals to these mild stresses and obtain baseline data. Other than the development of arthritis, the good health of the animals was maintained throughout the course of the experiments. Protocols for the use and care of the animals in the study were approved prior to beginning the experiments by the Sun Health Research Institute Animal Use and Care Committee and complied with NIH guidelines for the humane use and care of research animals. Dorsoplantar footpad measurements were completed every other day. Prior to sacrifice the animals were given a 1.0 ml intraperitoneal (i.p.) injection of 8% chloral hydrate in sterile saline and radiographs were taken of their hind limbs to assess disease severity. The animals were then sacrificed using an overdose of chloral hydrate.
Lewis rats were randomly assigned into five experimental groups of four animals per group. The experimental groups were 1) saline/M. Butyricum suspended in saline (non-arthritic; control for drug and antigen challenge), 2) sodium narcistatin/M. Butyricum suspended in saline (non-arthritic; drug control for antigen challenge), 3) no treatment-CFA (arthritic; control for stress of injections), 4) saline-CFA (arthritic; control for drug treatment), and 5) sodium-narcistatin-CFA (arthritic) treatments. The experiment was completed with an N=4 then repeated with an additional N=4. […]

[2] = system: TNFα production; experiment: TNFα production from splenic cultures of Balb/c mice treated with SNS; assay type: in vivo, mouse; conditions: non-CAIA Balb/c mice treated 5 days, p<0.01
Experimental: Balb/c mice (n=5) were treated i.p. with SNS at 5 mg/Kg or with PBS for 5 consecutive days. Spleen were isolated on the next day after the last SNS injection and the splenocytes were stimulated with anti-CD3 antibody or LPS for 24 hrs, and supernatant were analyzed for TNF-α production.
Isolated splenic cells were cultured with either immobilized […] (50 ug/ml) or 1 ug/ml LPS for […]. Cells without any stimulation were included as control. The supernatants from these cultures were analyzed for TNFα using BD™ CBA Mouse Inflammatory Kit (BD Biosciences), according to the manufacture's procedure. The average TNF concentration in each culture was derived from 2-3 independent experiments of 4-5 mice per group per experiment. No arthritis was induced in these experiments. […] Thus, TNFα production was reduced in the splenic culture of SNS-treated mice, in response to T cell activation by anti-CD3 antibody.

[3] = system: TNFα and MCP-1 production; experiment: In vivo air-pouch assay, LPS-stimulated cytokine production; parameters: species or system mouse; conditions: SNS 5 mg/kg then LPS 1 μg/ml, vs LPS-stimulated controls
Experimental: The reduction of TNF-alpha (P=0.04) and MCP-1 (P=0.03) in SNS-treated mice upon LPS stimulation. PBS_PBS: PBS followed by PBS; PBS_LPS: PBS followed by LPS (1 μg/ml); SNS_PBS: SNS followed by PBS; SNS_LPS: SNS (5 mg/kg) followed by LPS (1 μg/ml). Results are derived from three independent experiments. Statistical analysis was performed using one-way ANOVA.
To further test effects of SNS in whole animals, we established an air-pouch assay to evaluate the effect of the compound, SNS, on LPS-stimulated cytokine production, following a procedure described previously (9). (See FIG. 14) Mice were pre-treated with PBS or SNS then challenged with LPS. The pouch wash-out was then analyzed for cytokine production using BD™ CBA Mouse Inflammatory Kit (BD Biosciences).

[4] = system: splenic myeloid cells (CD11b+), T and B cells; experiment: Splenic cell populations in SNS-treated rats (immunostaining, flow cytometry); assay type: in vivo, rat
Experimental: B. Summary of myeloid cells (CD11b+ cells) present in various treatment groups. The statistical analysis was performed using t-test (*, N=4). SMB-saline, saline treated, non-arthritic, mycobacterium challenged; SMB-SNS, SNS treated, non-arthritic, mycobacterium challenged; CFA-saline, arthritic Saline treated; CFA-No-RX, arthritic no treatment (stress control); CFA-SNS, SNS treated arthritic. The experimental groups are the same as those in FIGS. 4-7.
One of characteristics of inflammatory response is an elevation of myeloid cells. […] The cells were stained with fluorescence-conjugated antibodies specific to CD3, CD45R, and CD11b, followed by analyses using flow cytometry to reveal T, B, and myeloid cells, respectively. Lymphoid and myeloid cells were distinguished based on their differing forward and side scatter patterns.

SMILES: O=C1N[C@@H]2C(=C[C@H](O)[C@H]3OP(=O)(O)O[C@H]32)c2cc3c(c(O)c21)OCO3 [SNS, sodium narcistatin]
- tolerability / overt toxicity, arthritic rats ([1]; body weights and gross evaluation of internal organs at end point): no general signs of overt toxicity were apparent
- body weight, non-arthritic control rats ([1]; day 28, chronic treatment, vs saline-treated non-arthritic controls, P<0.001): significantly decreased body weights
- body weight, arthritic rats ([1]; day 28, vs untreated or saline-treated arthritic rats): not significantly different
- TNFα in splenic cultures stimulated with anti-CD3 [2]: significant reduction of TNFα
- MCP-1 in air-pouch wash-out ([3]; P=0.03): significantly reduced
- TNFα in air-pouch wash-out ([3]; P=0.04): significantly reduced
- splenic myeloid population (CD11b+ cells) ([4]; rats of the AA study, especially SNS/non-arthritic group): greatly reduced this myeloid population
- numbers of splenic T and B lymphocytes ([4]; various treatment groups): comparable numbers of T and B lymphocytes

Reference: patent US20050261246A1, “Methods for treating inflammatory and autoimmune diseases” (priority 2004, published 2005)
